This is an account of results in patent US9539238B2, “Pharmaceutical composition comprising a biguanide derivative as an active ingredient for preventing or treating glioblastoma” (ImmunoMet Therapeutics, Inc., priority 2015, dated 2017).

Assay [1] relates to stemness markers such as nestin, CD133, Sox-2, Notch 1, Notch 2, and Oct3/4 in GSC11 or X01. The assay is described as follows: Western blotting of stemness markers. The assay is classed as cell-based, human. The protocol:
(§1) For Western blotting, 20 μg total protein from each sample was treated with Laemmli sample buffer and heated at 100° C. for 5 minutes. This was then loaded into each well and was resolved by 8% SDS-polyacrylamide gel electrophoresis (PAGE) and eleetroblotted onto nitrocellulose membranes (GE Healthcare life-Sciences). Membranes were blocked in 5% non-fat dry milk in TBS-T, and incubated with antibodies for AMPK-mTOR pathway-related proteins, stemness markers, and EMT-related markers overnight at 4° C., and then probed with peroxidase-conjugated goat anti-rabbit IgG (1:2000, santa cruz) for 1 hour at room temperature. The washes were repeated and the membrane was developed with a chemiluminescent agent (ECL; Amersham Life Science, Inc.). Band densities were measured using TINA image software (Raytest, Straubenhardt, Germany).
Background: In western blotting, separated proteins are transferred to a membrane and probed.

The subject of another assay is GSC11 and X01. Kind of assay: Neuro-glial differentiation (neuronal marker expression). The assay is classed as cell-based, human.
Another assay concerns GSC11. The assay is described as follows: 18F-FDG uptake (cellular metabolism). In kind it is cell-based, human. Conditions: 15 minutes incubation, radioactivity normalized to protein content. The method, then: In order to assess the effect of drugs on the cellular metabolism, ^18F-FDG uptake was examined, GSC11 were plated on 12-well plates with 3×10^5 cells per well for 24 hours. The medium was changed to a glucose-free DMEM medium (Gibco, Invitrogen Korea, Seoul, South Korea) containing approximately 0.5 μCi of ^18F-FDG, followed by incubation for 15 minutes. The cells were washed with phosphate-buffered saline 3 times and 0.1 ml of lysis buffer was added to each well. The lysed cells were then harvested to measure the amount of radioactivity by Wallac 148 Wizard 3 gamma-counter (PerkinElmer Life and, Analytical Science, Shelton, Conn., USA). The radioactivity measured was normalized to protein content.

A further assay has as its system stem cell. The assay is described as follows: MTT cell viability assay. In kind it is cell-based. The settings on record: treated for 5 days, sublethal dose. The protocol:
The effect of HL156A, TMZ, and combined HL156A and temozolomide on the survival of cells was determined by 3-(4,5-dimethylthiazol-2-yl)-2,5-diphenyl tetrazolium bromide (MTT) assay. Cells were seeded in 96-well plates and incubated at 37° C. for 24 hours and treated with HL156A, TMZ, and the combination thereof for 5 days. MTT reagent (10 μl/well) was added, incubated at 37° C. for 4 hours and the absorbance was measured at 490 nm. Each experiment was repeated three times and the results were expressed as % viable cells over control.
For orientation: Formazan colour is commonly taken as a measure of viable cells.

The test system of another assay is G-GSC11 spheroids. The assay is described as follows: 3D collagen I matrix invasion assay. The assay is classed as cell-based, human. The protocol:
The G-GSC11s grown in spheroid were cultured in collagen I matrices using polydimethylsiloxane (PDMS)-based micro-wells (diameter and depth of microwells: […] and 500 μm). The microwells were treated with a 1% poly(ethyleneimine) (Sigma-Aldrich, St. Louis, Mo., USA) solution for 10 minutes followed by 0.1% glutaraldehyde (Sigma-Aldrich, St. Louis, Mo., USA) for 30 minutes and washed with PBS overnight lo make PDMS wells adherent to collagen. The 4 mg/ml collagen I matrices are prepared from high-concentration rat tail collagen I (BD Bioscience, CA, USA) using the recommended manual provided by the manufacturer. Briefly, the amounts of 10× phosphate buffered saline (PBS), 1N NaOH, sterile dH2O, and collagen I were mixed to create gels based on the desired final concentration. The solution was well mixed and kept at 4° C. before use. To encapsulate G-GSC11 spheroid, 10 μl of a collagen I solution (4 mg/ml) were pipetted into the micro-well, single G-GSC11 spheroid was placed onto collagen I matrices from the culture plate, and 10 μl of a collagen I solution (4 mg/ml) was dropped onto G-GSC11 spheroid. The platform was incubated at 37° C. and 5% CO2 for 30 minutes. The cell viability was characterized by staining G-GSC11 spheroid with 8 μM Ethidium homodimer-1 (Invitrogen Korea, Seoul, South Korea) for 30 minutes at 37° C. before implantation in collagen matrix. After fall gelation, a superlayer of culture medium consisting of DMEM/F-12 with 2% 1×B27, 20 ng/ml 0.02% bFGF, 20 ng/ml 0.2% EGF, and 1% antibiotic-antimycotic solution (100× Gibco, Invitrogen Korea, Seoul, South Korea) was then added. To observe drug effects, drugs were mixed with medium considering the final concentration of each drug. […] To quantitate the invasion assay, the maximal area covered by migrating edges of cells was used as a parameter for defining invasiveness (invaded area at certain time/spheroid area at initial time×100). Data was analyzed through image analysis software ImageJ (NIH, Bethesda, Md., USA).

The subject of assay [2] is AMPK and mTOR pathway of GSC11 and X01 cells. Kind of assay: Western blotting of AMPK-mTOR pathway-related proteins. In kind it is cell-based, human. The protocol:
as §1

The test system of the next assay is GSC11 and X01 cells. The assay is described as follows: Neurosphere formation assay. In kind it is cell-based, human. Conditions: GSC11 and X01, cultured for 3 weeks. The method, then: For Neurosphere formation assay, the GSC11 and X01 cells were cultured in medium consisting of DMEM/F-12 with 2% 1×B27, 20 ng/ml 0.02% bFGF, 20 ng/ml 0.02% EGF, and 1% antibiotic-antimycotic solution (100×, Gibco, Invitrogen Korea, Seoul, South Korea). The cells were cultured in different conditions for 3 weeks. […] Photographs of cells were obtained with a digital camera (DP70 Digital Microscope Camera; Olympus), using DP Controller software (Olympus).

For assay [3], the system named is GSC11 orthotopic xenograft. The assay is described as follows: Orthotopic xenograft mouse model. In kind it is in vivo, male athymic nude mice. The settings on record: stained tumors. The protocol: Finally, the effect of the drags on the tumors of orthotopic xenograft mice was analyzed, 4- to 8-week-old male athymic nude mice (Central Lab. Animal Inc., Seoul, South Korea) were used for experiments. Mice were housed in micro-isolator cages under sterile conditions and observed for at least 1 week before study initiation to ensure proper health. Lighting, temperature, and humidity were controlled centrally. All experimental procedures were approved by Yonsei University College of Medicine Institutional Animal Care and Use Committee. Mice were anesthetized with a solution of Zoletil® (30 mg/kg; Virbac Korea, Seoul, South Korea) and xylazine (10 mg/kg; Bayer Korea, Seoul, South Korea) delivered intraperitoneally. GSC11 were implanted into the right frontal lobe of nude mice using a guide-screw system within the skull. Mice received 5×10^5 cells via a Hamilton syringe (Dongwoo Science Co., Seoul, South Korea) inserted to a depth of 4.5 mm. Then, 15 mg/kg of HL156A, 66.6 mg/kg of TMZ, and their combination were administrated to mice (n=5 per group). HL156A was given to mice by oral administration every other day until the duration of the experiment and TMZ was administrated intraperitoneally, for 5 days from the day of tumorsphere injection. The body weight of mice was checked every other day. […]

Assay [4] has as its system EMT-related markers such as β-catenin, zeb1, N-cadherin, and snail. Kind of assay: Western blotting of EMT-related markers. The assay is classed as cell-based, human. Conditions: tumorspheres. The protocol: as §1

Entries after “also recorded” stand apart in the source; their conditions may differ.

In the case of `N=C(NC(=N)N1CCCC1)Nc1ccc(OC(F)(F)F)cc1` [HL156A, N—(N-(4-(trifluoromethoxy)phenyl)carbamimidoyl)pyrrolidine-1-carboximidamide], in assay [1], the “expression of stemness markers (CD133, OCT 3/4, Sox-2, Notch 1, Notch 2)” value is “Decreased expression”. The “neuro-glial differentiation (expression of olig2, Tuj1, GFAP)” value in the assay on GSC11 and X01 was “did not promote”. Further, the 18F-FDG uptake entry with GSC11 is “markedly decreased”. For the same compound, the “cell viability (% viable cells over control)” value with stem cell was “minimal effect”. The “cell viability during the invasion experiment” value in the assay on G-GSC11 spheroids was “no significant cell death”. Also, the invasiveness result in the assay with G-GSC11 spheroids (implanted cells and drugs together (FIG. 3A)) is listed as “decreased invasiveness; also recorded: lesser degree of invasiveness”; in the assay with G-GSC11 spheroids (pre-implanted, drug treatment 12 hours after implantation (FIG. 3B)) it was “decreased invasiveness”. Besides, in [2], the “AMPK activation and consequent mTOR inhibition” value is “did not show expected AMPK activation”. Also, the number of neurospheres result with GSC11 and X01 cells is “markedly decreased”. Besides, the “tumor margin versus control” value in assay [3] is reported as “less irregular margin”. Besides, the “expression of β-catenin, zeb1, and N-cadherin (EMT-related markers)” value in [4] is “altered; also recorded: diminished”.
